Patent US8530680B2, “System and method for controlling growth of microorganisms with brominated furanones” (Syracuse University, priority 2008, dated 2013)
“Also recorded” adds a separate entry of the source.

Assays:
[1] = test system: Candida albicans strain SC5341; assay: C. albicans growth curves in SD medium with furanones (96-well plates, OD600); format: cell-based; settings: tested 2.5, 5, 10, 20 μg/mL
Procedure: To evaluate the effects of furanones on fungal growth, C. albicans was grown in a synthetic dextrose (“SD”) medium supplemented with 0, 2.5, 5, 10, or 20 μg/mL of one of eight different brominated furanones and […] furanones (BF1, BF8, BF9, BF11, BF12, BF14, NF1, NF2, or NF3).
The Candida albicans strain SC5341 used in this study was provided by Dr. Sean Palecek from the University of Wisconsin-Madison. C. albicans was routinely grown overnight at 30° C. and shaken at 200 rpm in a SD medium containing 0.67% (wt/vol) yeast nitrogen base without amino acids and 2% (wt/vol) dextrose, which was buffered with 0.165 M morpholinepropanesulfonic acid (MOPS, Sigma), and pH-adjusted to 7.0 with solid NaOH. The overnight culture was then sub-cultured in 25 mL of fresh SD medium to an initial optical density at 600 nm (OD600) of 0.005 and grown till the OD600 reached 1.0. The OD600 values were measured using a Spectronic GENESYS 5 UV-Vis spectrophotometer (Thermo Fisher Scientific®, Waltham, Mass.). This culture was used to inoculate sterile 96-well plates (Costar® No. 9017, Corning®, Corning, N.Y.) containing SD medium supplemented with furanones at different concentrations (0, 2.5, 5, 10, 20 μg/mL) to an OD600 of 0.06 in at least duplicates. The BF1, 8, 9, 11, 12, 14 and NF1-3 compounds were dissolved in ethanol at a concentration of 20 mg/mL. The BF10 compound was dissolved in methanol at a concentration of 20 mg/mL. The amounts of methanol and ethanol were adjusted to be the same for each sample to eliminate the effects of solvents. The samples were then incubated at 30° C. with shaking at 200 rpm, and the OD600 in each well was measured at 0, 4, 7, 17, and 42 hours after inoculation, using an ELx808™ Absorbance Microplate Reader (BioTek Instruments® Inc., Winooski, Vt.).

[2] = test system: Gloeophyllum trabeum strain GT598; assay: Fungal growth on MEA plates with furanone; format: cell-based; set-up: key to growth on plate, GT598: −: No growth was observed; +: normal growth was seen; settings: for growth on plate, GT598: 60 μg/mL, 7 days at 30° C.; for growth inhibition test, inhibitory concentration, GT598: tested at 1, 5, 30, 60 μg/mL, 7 days
Procedure: (§1) This Example examines the effect of brominated furanones on the growth of fungi associated with damage to building material. Six fungal strains were the subject of these experiments; Gloeophyllum trabeum (strains GT598 and GT599), Chaetomium globosum (wildtype strain and CG572), and Trametes versicolor (strains TV7B2-59 and TV57MAD277). The species were developed on 2% Malt-Extract Agar (MEA) plates and stored inverted at 4° C. The stocks were refreshed by streaking new plates every two months.
(§2) The brominated and non-brominated furanones were added to MAE agar plates at different concentrations. The brominated furanones were dissolved in either ethanol (“EtOH”) or methanol (“MeOH”) as stock solutions, as shown in Table 5. The non-brominated furanones were purchased from Sigma (St. Louis, Mo.). The furanone stocks were stored at 4° C.
(§3) MAE agar plates containing the same amounts of ethanol/methanol were also prepared as negative controls to eliminate any solvent effects. The plates were prepared using either 90 mm or 60 mm petri dishes and were stored inverted at 4° C. until use.
(§4) Different concentrations of furanones were studied to compare their antifungal activities. The plates were inoculated with the six fungal strains using a platinum loop and were incubated upside down at 30° C. for 7 days to monitor the growth. The initial screening was performed using a single 60 μg/mL furanone concentration.

[3] = test system: Gloeophyllum trabeum strain GT599; assay: Fungal growth on MEA plates with furanone; format: cell-based; set-up: key to growth on plate, GT599: −: No growth was observed; +: normal growth was seen; settings: for growth on plate, GT599: 60 μg/mL, 7 days at 30° C.; for growth inhibition test, inhibitory concentration, GT599: tested at 1, 5, 30, 60 μg/mL, 7 days
Procedure: as §1, §2, §3, §4

[4] = test system: Chaetomium globosum wildtype strain (CG); assay: Fungal growth on MEA plates with furanone; format: cell-based; set-up: key to growth on plate, CG: −: No growth was observed; +: normal growth was seen; settings: for growth on plate, CG: 60 μg/mL, 7 days at 30° C.; for growth inhibition test, inhibitory concentration, CG: tested at 1, 5, 30, 60 μg/mL, 7 days
Procedure: as §1, §2, §3, §4

[5] = test system: Chaetomium globosum CG572; assay: Fungal growth on MEA plates with furanone; format: cell-based; set-up: key to growth on plate, CG572: −: No growth was observed; +: normal growth was seen; settings: for growth on plate, CG572: 60 μg/mL, 7 days at 30° C.; for growth inhibition test, inhibitory concentration, CG572: tested at 1, 5, 30, 60 μg/mL, 7 days
Procedure: as §1, §2, §3, §4

[6] = test system: Trametes versicolor strain TV57MAD277; assay: Fungal growth on MEA plates with furanone; format: cell-based; set-up: key to growth on plate, TV57MAD277: −: No growth was observed; +: normal growth was seen; settings: for growth on plate, TV57MAD277: 60 μg/mL, 7 days at 30° C.; for growth inhibition test, inhibitory concentration, TV57MAD277: tested at 1, 5, 30, 60 μg/mL, 7 days
Procedure: as §1, §2, §3, §4

[7] = test system: P. aeruginosa strain PAO1; assay: Microplate based planktonic growth assay of P. aeruginosa; format: cell-based, Pseudomonas aeruginosa; settings: for reduction of specific growth rate compared to furanone-free control: planktonic growth
Procedure: The antimicrobial activities of furanones on the planktonic growth of P. aeruginosa strain PAO1 was examined using a microplate based growth assay. An overnight culture of the strain grown in LB medium at 30° C. was used to inoculate M63 minimal medium supplemented with furanones at 0, 30 or 60 μg/mL to an optical density at 600 nm (OD600) of 0.05 in 96-well plates. The plates were then incubated at 30° C. with shaking at 200 rpm. The reading of OD600 was measured every 60 minutes for six hours using a microplate reader (ELx808, BioTek Instruments). Six replicates were tested for every sample. The synthesis of the brominated furanones, the structures of which are shown in FIGS. 1A and 1B, was according to Example 1.

[8] = test system: P. aeruginosa strain PAO1 biofilm formation; assay: Microplate-based biofilm assay (crystal violet, OD540) of P. aeruginosa; format: cell-based, Pseudomonas aeruginosa; settings: 24 hours
Procedure: A microplate-based biofilm assay was used to further investigate whether furanones inhibit biofilm formation of P. aeruginosa strain PAO1. For this biofilm assay the strain was grown at 30° C. without shaking in M63 minimal medium containing 13.6 g/L KH2PO4, 2 g/L (NH4)2SO4, 0.5 mg/L FeSO4, 0.12 g/L MgSO4, 5 g/L vitamin free casamino acids and 5 g/L glucose (pH 7.0). The synthesis of the brominated furanones, the structures of which are shown in FIGS. 1A and 1B, was according to Example 1.
The overnight culture of P. aeruginosa was used to inoculate fresh M63 medium supplemented with furanones (0, 30 or 60 μg/mL) to an OD600 of 0.05 in 96-well plates. Four replicates were tested for each condition. The plates were incubated at 30° C. without shaking for 24 hours. The biofilm mass was quantified by following the protocol described previously. Briefly, the planktonic cells were carefully removed by pipetting and the plates with biofilms were washed three times with deionized H2O and dried by gently patting on a piece of paper towel. To quantify biofilms, the plates were stained with 0.1% crystal violet and incubated for 20 minutes at room temperature. The plates were then washed three times with deionized H2O to remove extra dyes. An OD540 was measured to quantify the biofilm on the bottom of each well.

| SMILES | lowest concentration showing growth inhibition [1] | growth on plate, GT598 [2] | growth inhibition test, inhibitory concentration, GT598 [2] | growth on plate, GT599 [3] | growth inhibition test, inhibitory concentration, GT599 [3] | growth on plate, CG [4] | growth inhibition test, inhibitory concentration, CG [4] | growth on plate, CG572 [5] | growth inhibition test, inhibitory concentration, CG572 [5] | growth on plate, TV57MAD277 [6] | growth inhibition test, inhibitory concentration, TV57MAD277 [6] | inhibitory effect on planktonic growth ([7]; 30 μg/mL) | inhibitory effect on planktonic growth ([7]; 30 and 60 μg/mL (up to 60 μg/mL)) | inhibition of biofilm formation ([8]; 30 μg/mL) | inhibition of biofilm formation ([8]; 60 μg/mL) | inhibition at 30 µg/mL ([8]; Pseudomonas aeruginosa, PAO1, 30 μg/mL, read-out: inhibition of biofilm formation compared to 24-hour biofilm mass of furanone-free control) | inhibition at 60 µg/mL ([8]; Pseudomonas aeruginosa, PAO1, 60 μg/mL, read-out: inhibition of biofilm formation compared to 24-hour biofilm mass of furanone-free control) | reduction of specific growth rate compared to furanone-free control ([7]; 30 μg/mL) | reduction of specific growth rate compared to furanone-free control ([7]; 60 μg/mL) |
| --- | --- | --- | --- | --- | --- | --- | --- | --- | --- | --- | --- | --- | --- | --- | --- | --- | --- | --- | --- |
| CCCCC1=C(Br)/C(=C/Br)OC1=O [BF1, 4-bromo-5Z-(bromomethylene)-3-butylfuran-2-one] | 20 µg/mL | − | 30 µg/mL | − | 30 µg/mL | − | 30 µg/mL | − | 30 µg/mL | − | 5 µg/mL |  |  |  |  |  |  |  |  |
| CC1=C(Br)/C(=C/Br)OC1=O [BF8, 4-bromo-5Z-(bromomethylene)-3-methylfuran-2-one] | 5 µg/mL | − | 5 µg/mL | − | 5 µg/mL | − | 5 µg/mL | − | 30 µg/mL | − | 30 µg/mL | did not exhibit significant inhibitory effects | did not inhibit; also recorded: no apparent effect | significantly inhibited | significantly inhibited | 86.1 ± 7.6% | 93.8 ± 3.7% |  |  |
| CC1=CC(=C(Br)Br)OC1=O [BF9, 5-(dibromomethylene)-3-methylfuran-2-one] | 20 µg/mL | − | 60 µg/mL | − | 60 µg/mL | − | 5 µg/mL | − | 60 µg/mL | − | 5 µg/mL |  |  | significantly inhibited | significantly inhibited |  |  | 29.3% | 42.7% |
| O=C1OC(=C(Br)Br)C=C1C(Br)Br [BF10, 3-(dibromomethyl)-5-(dibromomethylene)furan-2-one] | 20 µg/mL | − | 30 µg/mL | − | 30 µg/mL | − | 30 µg/mL | − | 30 µg/mL | − | 5 µg/mL | did not exhibit significant inhibitory effects |  | didn't show apparent inhibition | significantly inhibited; also recorded: inhibited biofilm formation completely |  |  |  | 10% |
